Laboratory results reported in paper PMC8424644, “Thermodynamic Stability and Speciation of Ga(III) and Zr(IV) Complexes with High-Denticity Hydroxamate Chelators” (Inorganic Chemistry, 2021).
Marks after values point to notes of the source that are not given here.

Key:
Assay type in all cases: physicochemical
[1] = pFe calculation (ligand sequestering ability); settings: pH=7.4, cL=10 μM, metal 1 μM
Source text: Despite a large variety of PET chelators synthesized and tested in order to provide strong coordination of Ga(III) and Zr(IV) in vivo, until now it is has been hard to avoid the release of these metal ions in the body. Here we report two new Ga(III) and Zr(IV) hydroxamate chelators, designed to achieve an efficient sequestering of these metal ions but also to understand how the cyclization and the introduction of an additional hydroxamate group influences the stability of Zr(IV) complexes. Therefore, it is important to evaluate and compare the Ga(III)- and Zr(IV)-sequestering abilities of […] and […] with those of other chelators. […] page 15: 100 100 [ZrL4]+ [ZrL3]+ [ZrL4H ] -1 80 [ZrL3H ] 80 2+ -1 [ZrHL4] […] Experimental section. Ligands' sequestering ability Table S3. pFe values with various synthetic and biological chelators a Ligand pFe Chelating groups and ligands geometry […] 24.3 3 hydroxamate groups in a cyclic arrangement […] 23.3 4 hydroxamate groups in a linear arrangement […] 26.9 3 hydroxamate groups in a cyclic arrangement […] 23.61 3 hydroxamate groups in a linear arrangement […] DFOE 27.73 3 hydroxamate groups in a cyclic arrangement […] protonation and stability constants given in original publications; the hydrolysis constants of Fe(III) ions were taken from the literature14 and are given in the experimental section 15 (also on this page, place not known: […]

[2] = pGa calculation (ligand sequestering ability); settings: pGa = −log[Ga(III)free], pH 7.4, cL = 10 μM, cGa(III) = 1 μM
Source text: (§1) Despite a large variety of PET chelators synthesized and tested in order to provide strong coordination of Ga(III) and Zr(IV) in vivo, until now it is has been hard to avoid the release of these metal ions in the body. Here we report two new Ga(III) and Zr(IV) hydroxamate chelators, designed to achieve an efficient sequestering of these metal ions but also to understand how the cyclization and the introduction of an additional hydroxamate group influences the stability of Zr(IV) complexes. Therefore, it is important to evaluate and compare the Ga(III)- and Zr(IV)-sequestering abilities of H3L1 and H4L2 with those of other chelators. However, the direct comparison of the stability constants of metal complexes is not straightforward, and other tools taking into account all the physicochemical properties of the ligands, i.e. their denticity, coordination modes, and acid–base properties, should be used.[52] In order to reliably compare the chelating abilities of H3L1 and H4L2 toward Ga(III) and Zr(IV) ions, the pM values were calculated. pFe was originally introduced by Raymond for the comparison of iron-siderophore systems;[53] pGa = −log[Ga(III)free] and pZr = −log[Zr(IV)free] were calculated at pH 7.4 with cL = 10 μM and cGa(III)/Zr(IV) = 1 μM (Table 2).

[3] = Fe(III) complex stability, pH-dependent UV–vis titrations
Source text: To evaluate the thermodynamic stability of Ga(III) and Zr(IV) complexes of the investigated ligands, the binding properties and speciation of Fe(III) complexes have first been determined (all the details are given in the Supporting Information). There are several reasons for this protocol. First, (i) the electron configuration of Ga(III) (d^10) and Zr(IV) (d^0) hinders the attainment of spectral information for most of the complexes. Furthermore, (ii) both metal ions are highly acidic and they are readily hydrolyzed over almost the entire pH range. In addition, (iii) the high charge to size ratio of the Zr(IV) ion implies the formation of complexes with an exceptional thermodynamic stability (already at very low pH); as a consequence, the stability constants cannot be directly determined using standard potentiometric titrations. Thus, the thermodynamic stability constants of the Fe(III)-H3L1 and Fe(III)-H4L2 systems were first determined (using a combination of potentiometric and pH-dependent UV–vis titrations), followed by Fe(III)–Ga(III) and Fe(III)–Zr(IV) metal–metal competition experiments. […]

[4] = pZr calculation (ligand sequestering ability); settings: for pZr: pZr = −log[Zr(IV)free], pH 7.4, cL = 10 μM, cZr(IV) = 1 μM
Source text: as §1

pFe [1] | pGa [2] | pK of [FeHL] ([FeHL1]+ to [FeL1]) ([3]; from UV–vis log β values (supplement)) | pZr [4] | log β [FeHL] ([3]; pH-dependent UV–vis titrations, 25 °C, I = 0.1 M NaClO4) | pZr higher than the values for Zr(IV)-DFOB and Zr(IV)-H3L1 [4] [units] | Structure (SMILES)
24.3 | 22.5 | 3.21 | 32.4 | – | – | O=C1CCCN(O)C(=O)CCCNC(=O)CCCN(O)C(=O)CCCNC(=O)CCCN(O)C(=O)CCCN1 [H3L1, 1,11,21-Trihydroxy-1,6,11,16,21,26-hexaazacyclotriacontane-2,7,12,17,22,27-hexaone]
23.3 | 22.3 | – | 37.0 | 36.96(7) ^e | > 4 | N[C@H]1CCCCNC(=O)CCCN(O)C(=O)CCCNC(=O)CCCN(O)C(=O)CCCNC(=O)CCCN(O)C(=O)CCCNC(=O)CCCN(O)C(=O)CCCNC1=O [H4L2, (S)-43-Amino-6,16,26,36-tetrahydroxy-1,6,11,16,21,26,31,36,41-nonaazacycloheptatetracontane-2,7,12,17,22,27,32,37,42-nonaone]
